Our source for the Activity values is ChEMBL document CHEMBL6153121, “Anti-Inflammatory Dimeric and Trimeric Flavonoids from the Roots ofPistacia weinmannifolia” (J Nat Prod, 2025).

Calls of active or inactive are those of the source. No cut-off for these calls is given here.

One data set has as its system NCI-H292. Nature of the data set: Antiinflammatory activity against PMA-stimulated human NCI-H292 cells assessed as reduction in MUC5AC secretion at 1 uM incubated for 24 hrs by ELISA. It counts as functional, cell-based.
Conditions: not given
For orientation: An ELISA detects its analyte on a solid surface through an enzyme-linked reagent.
On to `O=C(/C=C/c1ccc(Oc2cc(C(=O)/C=C/c3ccc(O)cc3)c(O)cc2O)cc1)c1ccc(O)cc1O`, for which the Activity result was “Active; Effectively Inhibited The Secretion”.
For the compound `O=C(/C=C/c1ccc(Oc2ccc(/C=C/C(=O)c3ccc(O)cc3O)cc2O)cc1)c1ccc(O)cc1O`, the Activity result is given as “Active; Effectively Inhibited The Secretion”.
Still for that read-out and setting: for `O=C(/C=C/c1ccc(Oc2ccc([C@@H]3[C@@H](C(=O)c4ccc(O)cc4O)[C@H](C(=O)c4ccc(O)cc4O)[C@H]3c3ccc(O)cc3)cc2O)cc1)c1ccc(O)cc1O` the value was “Active; Effectively Inhibited The Secretion”; for `O=C(/C=C/c1ccc(O)cc1)c1ccc2c(c1O)[C@H](C(=O)c1ccc(O)cc1O)[C@@H](c1ccc(O)cc1)O2`, “Active”; for `O=C(/C=C/c1ccc(O)c(-c2cc(C(=O)/C=C/c3ccc(O)cc3)c(O)cc2O)c1)c1ccc(O)cc1O`, “Active”.
The same measure, in the same setting: with `O=C1C[C@@H](c2ccc(O)cc2)Oc2cc(Oc3ccc([C@@H]4[C@@H](C(=O)c5ccc(O)cc5O)[C@H](C(=O)c5ccc(O)cc5O)[C@H]4c4ccc(O)cc4)cc3O)ccc21` the entry was “Active”; with `O=C(/C=C/c1ccc(Oc2c(O)ccc(C(=O)/C=C/c3ccc(O)cc3)c2O)cc1)c1ccc(O)cc1`, “Active”.

The test system of a further data set is NCI-H292. Nature of the data set: Antiinflammatory activity against PMA-stimulated human NCI-H292 cells assessed as reduction in IL-8 secretion at 1 uM incubated for 24 hrs by ELISA. It counts as functional, cell-based.
Conditions: not given
Turning to `O=C(/C=C/c1ccc(Oc2cc(C(=O)/C=C/c3ccc(O)cc3)c(O)cc2O)cc1)c1ccc(O)cc1O`, the Activity result is recorded as “Active; Effectively Inhibited The Secretion”.
With `O=C(/C=C/c1ccc(Oc2ccc(/C=C/C(=O)c3ccc(O)cc3O)cc2O)cc1)c1ccc(O)cc1O`, the Activity result was “Active; Effectively Inhibited The Secretion”.
For `O=C(/C=C/c1ccc(Oc2ccc([C@@H]3[C@@H](C(=O)c4ccc(O)cc4O)[C@H](C(=O)c4ccc(O)cc4O)[C@H]3c3ccc(O)cc3)cc2O)cc1)c1ccc(O)cc1O`, the Activity result is on record as “Active; Effectively Inhibited The Secretion”.
Same read-out and setting: with `O=C(/C=C/c1ccc(O)cc1)c1ccc2c(c1O)[C@H](C(=O)c1ccc(O)cc1O)[C@@H](c1ccc(O)cc1)O2` the entry was “Active”.
For the compound `O=C(/C=C/c1ccc(O)c(-c2cc(C(=O)/C=C/c3ccc(O)cc3)c(O)cc2O)c1)c1ccc(O)cc1O`, the result was Active.
Same read-out and setting: for `O=C1C[C@@H](c2ccc(O)cc2)Oc2cc(Oc3ccc([C@@H]4[C@@H](C(=O)c5ccc(O)cc5O)[C@H](C(=O)c5ccc(O)cc5O)[C@H]4c4ccc(O)cc4)cc3O)ccc21` the value was “Active”; for `O=C(/C=C/c1ccc(Oc2c(O)ccc(C(=O)/C=C/c3ccc(O)cc3)c2O)cc1)c1ccc(O)cc1`, “inactive”.

Another data set relates to NCI-H292. Nature of the data set: Cytotoxicity against human NCI-H292 cells assessed as redcution in cell viability at 0.25 to 1 uM incubated for 24 hrs in presence of PMA by CCK-8 assay. It counts as toxicity, cell-based. The settings on record: nci-h292, 24 h, dose 0.25-1 µM. In general terms: Formazan colour is commonly taken as a measure of viable cells.
For the compound `O=C(/C=C/c1ccc(Oc2ccc([C@H]3Oc4cc(O)ccc4C(=O)[C@@H]3[C@@H]3C(=O)c4ccc(O)cc4O[C@H]3c3ccc(O)c(O)c3)cc2)cc1)c1ccc(O)cc1O`, the Activity result is “Toxic”.
